Experimental data published in patent US20060246095A1, “Multiepitope polypeptides for cancer immunotherapy” (HADASIT MEDICAL RESEARCH SERVICES & DEVELOPMENT LTD., priority 2003, published 2006).

What was measured:
[1] = system: MHC; conditions: cited from earlier work
[2] = system: HHD mice; conditions: HLA-A2.1-restricted; cited from earlier work
[3] = system: CTLs in blood lymphocytes of breast carcinoma patients; conditions: personal communications; cited from earlier work
[4] = system: T cell clone CK3H6 (A2 restricted gp100 epitope 209-217); assay: Recognition assay for peptide presentation by DC (IFN-γ release ELISA), T cell clone CK3H6; type: cell-based, human
Experimental: (§1) Dendritic cells were isolated from cytopheresis MNCs of melanoma patients with the HLA haplotypes HIA-A*0201 and HLA-DRβ1*0401. DC were generated from plastic adherent PBMCs cultured in RPMI with 10% human AB-serum, L-glutamine, penicillin-streptomycin, supplemented with GM-CSF 1000 IU/ml and IL-4 1000 IU/ml. By day 6, immature DC were harvested for electroporation.
(§2) 2.5-3×10^6 DC were re-suspended in 100 μl nucleofector solution and added to 5 μg of DNA plasmid in 2-mm electrode gap cuvettes. Transfected DC were immediately plated with CM containing GM/IL4 or let mature using TNFα 100 ng/ml and PGE2 1000 ng/ml. GFP-transfected DCs were collected 16-24 hours later for FACS analysis.
(§3) DC were pulsed with 1 μg/ml of the relevant peptides at 1×10^6 cells/ml. Stimulants were added after 1 hour incubation without washing the peptide.
CK3H6 which recognizes the A2 restricted gp100 epitope 209-217.
(§4) T cell clones were co-incubated with DC in flat 96-well plate for 24 hours. DC were plated immediately after their transfection or pulsing in 6 separated plates, in the presence of GM CSF and IL-4. 1×10^5 T cells were added to 1×10^5 pulsed or transfected DC. In the longitudinal study, T cell clones were added to the transfected/pulsed DC at the following time points: T0=immediately, +12=after 12 hours, 24, 36, 48 and 72 hours. Supernatants were collected after overnight incubation. Interferon gamma release assay was performed to evaluate T cell stimulation using the ELISA method, results are presented in pg/ml.
(§5) Lactacystin was added to DC at concentrations of 25 μM and 50 μM, 4 hours post transfection. DC were incubated with lactacystin for 70 minutes and then washed twice.
(§6) Responding T cells were added after washing the lactacystin and co-incubated. Supernatents were collected after 20 hours.
(§7) For recognition assay of DC epitope presentation, 1×10^5 cells from different T cell clones, that were grown from PBMCs of patients, and were restricted to particular melanoma antigen peptides, were co-incubated with 1×10^5 pulsed or transfected DC, in the presence of GM-CSF and IL-4. T cell clones were added to the transfected/pulsed DC at the following time points: T=0 immediately, T=12, 24, 36, 48, 72 hours. Supernatant was collected after overnight incubation and was subjected to interferon gamma release assay, in order to evaluate the specific T cell activity towards the particular peptide presented by the DC cells.
(§8) The results shown in the following tables represent the amount of Interferon-γ (pg/ml) secreted to the culture medium as an index for T cell stimulation.

[5] = system: TIL 1940 (A2 restricted MART-1 epitope 27-35); assay: Recognition assay for peptide presentation by DC (IFN-γ release ELISA), TIL 1940; type: cell-based, human; conditions: TIL 1940
Experimental: as §1, §2, §3
TIL 1940 which recognizes the A2 restricted MART-1 epitope 27-35.
as §4, §5, §6, §7, §8

[6] = system: TIL 1383 (A2 restricted tyrosinase epitope 369-377); assay: Recognition assay for peptide presentation by DC (IFN-γ release ELISA), TIL 1383; type: cell-based, human; conditions: control plate; peptide-pulsed DC; TIL 1383
Experimental: as §1, §2, §3
TIL 1383 which recognizes the A2 restricted tyrosinase epitope 369-377.
as §4, §5, §6, §7, §8

[7] = system: T cell clone RB-154 (gp100 154-162 peptide); assay: Recognition assay for peptide presentation by DC (IFN-γ release ELISA), clone RB-154; type: cell-based, human; conditions: control plate; peptide-pulsed DC; clone RB-154
Experimental: as §1, §2, §3, §4, §7, §8

[8] = system: T cell clone BR-B8 (DR4-restricted gp100 epitope 44-59); assay: Recognition assay for peptide presentation by DC (IFN-γ release ELISA), clone BR-B8; type: cell-based, human; conditions: control plate; peptide-pulsed DC; clone BR-B8
Experimental: as §1, §2
pcDNA-MEP and pcDNA-gp100 were co-transfected to detect Class II antigen presentation as an internal control.
BR-B8 which recognizes the DR4-restricted gp100 epitope 44-59.
as §4, §5, §6, §7, §8

[9] = system: DC with CM (no T cell clone); assay: Recognition assay, CM in place of a T cell clone (IFN-γ background of DC); type: cell-based, human; conditions: transfected or peptide-pulsed DC, CM instead of T cell clone
Experimental: as §1, §2, §3, §4, §7, §8

[10] = control plate, peptide-pulsed DC, T cell clone CK3H6
[11] = control plate, peptide-pulsed DC

Sequence of MHC (P61769 21-119): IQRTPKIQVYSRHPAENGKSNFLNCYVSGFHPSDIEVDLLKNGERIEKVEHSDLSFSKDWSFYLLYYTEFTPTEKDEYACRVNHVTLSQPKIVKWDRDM

In the case of “MUC1/A7: peptide A7 (NLTISDVSV) of MUC1, SEQ ID NO: 26 (listed as Homo sapiens)”, the MHC-binding affinity [1] is given as “high”, the “CTL induced upon vaccination, lysis of human carcinoma lines” value [2] is given as “effectively lysed the human carcinoma lines” and the “activation of CTLs in blood lymphocytes, patients responding” value [3] is given as 2/4.

In the case of “MUC1/D6: peptide D6 (LLLTVLTVV) of MUC1, SEQ ID NO: 25 (listed as Homo sapiens)”, the MHC-binding affinity [1] is given as “high”, the “CTL induced upon vaccination, lysis of human carcinoma lines” value [2] is given as “effectively lysed the human carcinoma lines” and the “activation of CTLs in blood lymphocytes, patients responding” value [3] is given as 3/4.

With “TYR 369-377: peptide 369-377 derived from Tyrosinase, SEQ ID NO: 17” the “Interferon-γ secreted to the culture medium” value (from here on “Interferon-γ secreted”) [4, 10] was 1 pg/mL, the “Interferon-γ secreted” value [5, 11] was 1 pg/mL and the “Interferon-γ secreted” value [6] was 69 pg/mL. The “Interferon-γ secreted” value [7] was 0 pg/mL and the “Interferon-γ secreted” value [8] was 1 pg/mL.

For “gp 100 154-162: peptide 154-162 of gp100, SEQ ID NO: 24”, the “Interferon-γ secreted” value [4, 10] was 7 pg/mL, the “Interferon-γ secreted” value [5, 11] was 6 pg/mL and the “Interferon-γ secreted” value [6] was 6 pg/mL. For the same substance, the “Interferon-γ secreted” value [7] was over 2000 pg/mL and the “Interferon-γ secreted” value [8] was 1 pg/mL.

In the case of “gp 100 209-217: peptide 209-217 of gp100, SEQ ID NO: 16”, the “Interferon-γ secreted” value [4, 10] is reported as over 2000 pg/mL, the “Interferon-γ secreted” value ([4]; transfected or peptide-pulsed DC, Donor 1, T = 12 hours, CK3H6) is reported as over 2000 pg/mL and the “Interferon-γ secreted” value ([4]; transfected or peptide-pulsed DC, Donor 1, T = 24 hours, CK3H6) is reported as 31 pg/mL. The “Interferon-γ secreted” value ([4]; transfected or peptide-pulsed DC, Donor 1, T = 36 hours, CK3H6) was 12 pg/mL, the “Interferon-γ secreted” value ([4]; transfected or peptide-pulsed DC, Donor 1, T = 48 hours, CK3H6) was 0 pg/mL and the “Interferon-γ secreted” value ([4]; transfected or peptide-pulsed DC, Donor 1, T = 72 hours, CK3H6) was 0 pg/mL. The “Interferon-γ secreted” value ([4]; transfected or peptide-pulsed DC, Donor 2, T = 12 hours, CK3H6) was over 2000 pg/mL, the “Interferon-γ secreted” value ([4]; transfected or peptide-pulsed DC, Donor 2, T = 24 hours, CK3H6) was 18 pg/mL and the “Interferon-γ secreted” value ([4]; transfected or peptide-pulsed DC, Donor 2, T = 36 hours, CK3H6) was 11 pg/mL. For the same substance, the “Interferon-γ secreted” value ([4]; transfected or peptide-pulsed DC, Donor 2, T = 48 hours, CK3H6) was 0 pg/mL, the “Interferon-γ secreted” value ([4]; transfected or peptide-pulsed DC, Donor 2, T = 72 hours, CK3H6) was 0 pg/mL and the “Interferon-γ secreted” value [5, 11] was 1 pg/mL. For the same substance, the “Interferon-γ secreted” value ([5]; transfected or peptide-pulsed DC, Donor 1, T = 12 hours) was 10 pg/mL, the “Interferon-γ secreted” value ([5]; transfected or peptide-pulsed DC, Donor 1, T = 24 hours) was 1 pg/mL and the “Interferon-γ secreted” value ([5]; transfected or peptide-pulsed DC, Donor 1, T = 36 hours) was 13 pg/mL. The “Interferon-γ secreted” value ([5]; transfected or peptide-pulsed DC, Donor 1, T = 48 hours) was 0 pg/mL, the “Interferon-γ secreted” value ([5]; transfected or peptide-pulsed DC, Donor 1, T = 72 hours) was 0 pg/mL and the “Interferon-γ secreted” value ([5]; transfected or peptide-pulsed DC, Donor 2, T = 12 hours) was 12 pg/mL. For the same substance, the “Interferon-γ secreted” value ([5]; transfected or peptide-pulsed DC, Donor 2, T = 24 hours) was 6 pg/mL, the “Interferon-γ secreted” value ([5]; transfected or peptide-pulsed DC, Donor 2, T = 36 hours) was 7 pg/mL and the “Interferon-γ secreted” value ([5]; transfected or peptide-pulsed DC, Donor 2, T = 48 hours) was 0 pg/mL. For the same substance, the “Interferon-γ secreted” value ([5]; transfected or peptide-pulsed DC, Donor 2, T = 72 hours) was 0 pg/mL, the “Interferon-γ secreted” value [6] was 1 pg/mL and the “Interferon-γ secreted” value [7] was 1 pg/mL. For the same substance, the “Interferon-γ secreted” value [8] was 1 pg/mL, the “Interferon-γ secreted” value ([9]; Donor 1, T = 12 hours) was 9 pg/mL and the “Interferon-γ secreted” value ([9]; Donor 1, T = 48 hours) was 0 pg/mL. The “Interferon-γ secreted” value ([9]; Donor 1, T = 72 hours) was 0 pg/mL, the “Interferon-γ secreted” value ([9]; Donor 2, T = 12 hours) was 8 pg/mL and the “Interferon-γ secreted” value ([9]; Donor 2, T = 24 hours) was 6 pg/mL. For the same substance, the “Interferon-γ secreted” value ([9]; Donor 2, T = 36 hours) was 8 pg/mL, the “Interferon-γ secreted” value ([9]; Donor 2, T = 48 hours) was 0 pg/mL and the “Interferon-γ secreted” value ([9]; Donor 2, T = 72 hours) was 0 pg/mL.
